Holding throughout (type): biochemical
The target in one test is T1, recombinant human VAP-1 (Homo sapiens, UniProt Q16853).
T1 construct: purchased R&D systems
T1 sequence (Q16853 1-763): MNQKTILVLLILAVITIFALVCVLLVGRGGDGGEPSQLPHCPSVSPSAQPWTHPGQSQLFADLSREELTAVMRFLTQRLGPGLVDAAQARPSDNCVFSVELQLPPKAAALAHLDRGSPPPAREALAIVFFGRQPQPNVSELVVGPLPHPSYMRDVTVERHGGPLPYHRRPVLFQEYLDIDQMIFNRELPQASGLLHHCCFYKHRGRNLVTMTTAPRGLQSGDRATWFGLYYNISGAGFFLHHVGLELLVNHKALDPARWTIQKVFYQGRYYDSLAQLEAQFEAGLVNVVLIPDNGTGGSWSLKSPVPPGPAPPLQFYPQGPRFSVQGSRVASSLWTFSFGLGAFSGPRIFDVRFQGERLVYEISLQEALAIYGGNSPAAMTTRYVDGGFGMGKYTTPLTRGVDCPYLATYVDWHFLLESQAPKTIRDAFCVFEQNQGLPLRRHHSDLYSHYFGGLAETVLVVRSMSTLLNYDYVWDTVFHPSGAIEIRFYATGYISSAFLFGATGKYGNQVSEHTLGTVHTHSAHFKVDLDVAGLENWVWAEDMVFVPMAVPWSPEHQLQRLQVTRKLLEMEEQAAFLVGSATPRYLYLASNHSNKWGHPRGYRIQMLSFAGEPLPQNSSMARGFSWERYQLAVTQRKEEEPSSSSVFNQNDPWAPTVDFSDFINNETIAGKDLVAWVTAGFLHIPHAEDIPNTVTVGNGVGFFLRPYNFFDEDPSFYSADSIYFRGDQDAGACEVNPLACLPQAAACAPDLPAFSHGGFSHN
Briefly: Activity on recombinant human VAP-1, Amplex Red HRP-coupled hydrogen peroxide assay, benzylamine substrate. As to conditions: recombinant human VAP-1, benzylamine substrate, read-out: Inhibitory Activity (IC50, nM) human VAP-1. An outline of the steps:
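8-point 1:3 dilutions, final DMSO <1%; 30 min enzyme preincubation, 37 °C, pH 7.4 phosphate. Start: 1 mM benzylamine + 200 uM Amplex Red + 1 U/mL HRP. Read ex544/em590 over 1-2 h; % rate decrease vs DMSO control, 4-parameter logistic IC50.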

Test [1] deals with T2, recombinant human DAO (diamine oxidase) (Homo sapiens, UniProt P19801).
T2 construct: purchased R&D systems
T2 sequence (P19801 20-751): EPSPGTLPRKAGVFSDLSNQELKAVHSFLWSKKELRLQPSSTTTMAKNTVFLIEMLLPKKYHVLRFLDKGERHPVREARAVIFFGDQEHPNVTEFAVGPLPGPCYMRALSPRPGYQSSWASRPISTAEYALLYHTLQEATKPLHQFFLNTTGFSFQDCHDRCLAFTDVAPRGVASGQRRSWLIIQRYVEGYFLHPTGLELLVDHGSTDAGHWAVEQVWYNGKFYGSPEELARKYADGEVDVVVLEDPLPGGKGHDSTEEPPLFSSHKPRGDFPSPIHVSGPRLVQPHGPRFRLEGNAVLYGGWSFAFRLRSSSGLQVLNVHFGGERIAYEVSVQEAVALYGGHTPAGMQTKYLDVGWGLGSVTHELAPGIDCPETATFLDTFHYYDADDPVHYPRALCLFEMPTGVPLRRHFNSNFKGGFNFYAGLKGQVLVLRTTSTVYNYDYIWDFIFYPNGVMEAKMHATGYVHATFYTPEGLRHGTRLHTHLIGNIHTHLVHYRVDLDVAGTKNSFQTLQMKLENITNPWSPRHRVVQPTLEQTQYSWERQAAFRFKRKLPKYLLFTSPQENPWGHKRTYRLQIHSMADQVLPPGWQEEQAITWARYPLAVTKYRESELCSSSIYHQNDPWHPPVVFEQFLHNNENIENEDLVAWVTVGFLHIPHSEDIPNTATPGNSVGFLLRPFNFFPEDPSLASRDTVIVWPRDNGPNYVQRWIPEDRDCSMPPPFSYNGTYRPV
Briefly: Activity on recombinant human DAO, Amplex Red method, 1 mM putrescine substrate. As to conditions: recombinant human DAO, read-out: Inhibitory Activity (IC50, nM) DAO. In short, it runs like this:
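Inhibition of recombinant human DAO (diamine oxidase, R&D systems) was assessed with the Amplex Red Hydrogen Peroxide Assay Kit. Hydrogen peroxide produced from 1 mM putrescine was detected through an HRP-coupled reaction that converts Amplex Red into fluorescent resorufin, read at 544 nm excitation and 590 nm emission. IC50 values came from four-parameter logistic fits in GraphPad Prism.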

Test [2] deals with T3, recombinant human MAO-A (monoamine oxidase-A) (Homo sapiens, UniProt P21397).
T3 construct: purchased Sigma-Aldrich
T3 sequence (P21397 1-527): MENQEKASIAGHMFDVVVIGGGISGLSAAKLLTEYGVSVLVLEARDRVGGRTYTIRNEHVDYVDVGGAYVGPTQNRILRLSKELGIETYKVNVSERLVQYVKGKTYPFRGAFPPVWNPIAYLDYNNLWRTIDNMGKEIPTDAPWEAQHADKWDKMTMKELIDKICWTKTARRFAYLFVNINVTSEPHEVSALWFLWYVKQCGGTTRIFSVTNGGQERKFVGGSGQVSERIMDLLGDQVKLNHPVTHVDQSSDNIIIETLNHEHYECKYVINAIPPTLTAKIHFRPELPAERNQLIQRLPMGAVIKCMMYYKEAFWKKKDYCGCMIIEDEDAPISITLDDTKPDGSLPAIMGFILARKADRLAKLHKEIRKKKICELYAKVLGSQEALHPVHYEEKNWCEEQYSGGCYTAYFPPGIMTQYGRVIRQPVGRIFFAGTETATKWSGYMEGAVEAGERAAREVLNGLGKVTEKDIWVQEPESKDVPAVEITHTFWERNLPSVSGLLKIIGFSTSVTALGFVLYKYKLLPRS
Briefly: Activity on recombinant human MAO-A, Amplex Red method, 0.5 mM tyramine substrate. As to conditions: read-out: Inhibitory Activity (IC50, nM) MAO-A. In short, it runs like this: (§1)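 HRP-coupled Amplex Red H2O2 assay, 50 mM sodium phosphate pH 7.4; compounds (8-point 1:3 series, final DMSO <1%) preincubated with enzyme 30 min at 37° C, then 200 uM Amplex Red, 1 U/mL HRP and substrate (MAO-A 0.5 mM tyramine; MAO-B 1 mM benzylamine) added. Resorufin fluorescence (ex 544/em 590 nm) read over 1-2 h; IC50 from four-parameter logistic fit.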

The target of test [3] is T4, recombinant human MAO-B (monoamine oxidase-B) (Homo sapiens, UniProt P27338).
T4 construct: purchased Sigma-Aldrich
T4 sequence (P27338 1-520): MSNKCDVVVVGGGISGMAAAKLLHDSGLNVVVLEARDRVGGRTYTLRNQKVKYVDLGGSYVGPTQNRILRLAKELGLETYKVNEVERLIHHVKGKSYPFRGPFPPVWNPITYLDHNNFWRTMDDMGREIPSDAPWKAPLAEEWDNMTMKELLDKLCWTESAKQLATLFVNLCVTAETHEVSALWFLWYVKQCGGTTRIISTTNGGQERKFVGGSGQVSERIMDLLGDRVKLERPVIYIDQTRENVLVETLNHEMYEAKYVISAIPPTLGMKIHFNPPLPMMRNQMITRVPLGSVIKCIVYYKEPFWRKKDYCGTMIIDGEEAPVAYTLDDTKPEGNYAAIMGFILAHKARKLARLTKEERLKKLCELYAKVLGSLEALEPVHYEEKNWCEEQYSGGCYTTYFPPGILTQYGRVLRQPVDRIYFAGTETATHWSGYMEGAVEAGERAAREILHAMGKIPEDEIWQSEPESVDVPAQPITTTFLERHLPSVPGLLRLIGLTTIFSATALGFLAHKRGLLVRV
Briefly: Activity on recombinant human MAO-B, Amplex Red method, 1 mM benzylamine substrate. As to conditions: read-out: Inhibitory Activity (IC50, nM) MAO-B. In short, it runs like this:
as §1

[4] abbreviates: 1 mM putrescine, * = between 10 and 100 nM, ** = between 300 and 1000 nM.

The source of these data is patent US11492335B2, “Aryl or heteroaryl triazolone derivatives or salts thereof, or pharmaceutical compositions comprising the same” (YUHAN CORPORATION, priority 2018, dated 2022).

Counter-ions that a name gives are not always drawn. Like-named read-outs stand apart in the source and are kept apart here. Some results are limits rather than exact numbers.

By IC50 is commonly meant the concentration that gives 50% inhibition.

For the compound `NC/C(=C\F)Cn1ncn(-c2ncc(-c3ccc4c(c3)NCC4=O)cc2F)c1=O` [Example 163, 6-(6-{1-[(2E)-2-(aminomethyl)-3-fluoroprop-2-en-1-yl]-5-oxo-1,5-dihydro-4H-1,2,4-triazol-4-yl}-5-fluoropyridin-3-yl)-1,2-dihydro-3H-indol-3-one], the IC50 at recombinant human VAP-1 is 0.56 nM; in test [1] (1 mM putrescine substrate), 1.3 nM; in test [2] (0.5 mM tyramine substrate) it was above 100000 nM; in test [3] (1 mM benzylamine substrate), 740 nM.
As to `NC/C(=C/F)Cn1ncn(-c2ccc(OCc3ccccc3)cc2)c1=O` [Example 7, 2-[(2Z)-2-(aminomethyl)-3-fluoroprop-2-en-1-yl]-4-[4-(benzyloxy)phenyl]-2,4-dihydro-3H-1,2,4-triazol-3-one], the IC50 came to 0.88 nM on recombinant human VAP-1 (30 min preincubation at 37° C.), 47 nM in test [1] (setting [4]), 2100 nM in test [2] (0.5 mM tyramine) and 8 nM in test [3] (1 mM benzylamine).
The like results for `NC/C(=C\F)Cn1ncn(-c2cccc(-c3ccc(-c4ccc5c(c4)OCO5)cc3)c2)c1=O` [Example 70, 2-[(2E)-2-(aminomethyl)-3-fluoroprop-2-en-1-yl]-4-[4′-(1,3-benzodioxol-5-yl)biphenyl-3-yl]-2,4-dihydro-3H-1,2,4-triazol-3-one hydrochloride] were, in that order, 0.63 nM, below 30 nM, above 100000 nM and 1620 nM.
Consider `COc1cc(-n2cnn(C/C(=C/F)CN)c2=O)ccc1Br` [Example 18, 2-[(2E)-2-(aminomethyl)-3-fluoroprop-2-en-1-yl]-4-(4-bromo-3-methoxyphenyl)-2,4-dihydro-3H-1,2,4-triazol-3-one hydrochloride], for which the IC50 is 1.4 nM at recombinant human VAP-1 (30 min preincubation at 37° C.), 21 nM in test [1] (setting [4]), above 100000 nM in test [2] (0.5 mM tyramine) and 58 nM in test [3] (1 mM benzylamine).
The like results for `NC/C(=C\F)Cn1ncn(-c2ccc(F)cc2)c1=O` [Example 6, 2-[(2E)-2-(aminomethyl)-3-fluoroprop-2-en-1-yl]-4-(4-fluorophenyl)-2,4-dihydro-3H-1,2,4-triazol-3-one hydrochloride] were, in that order, 3.7 nM, 1100 nM, above 100000 nM and above 10000 nM.
Taken in the same sequence, the figures for `NC/C(=C\F)Cn1ncn(-c2cccc(-c3ccc4c(c3)OCCO4)c2)c1=O` [Example 95, 2-[(2E)-2-(aminomethyl)-3-fluoroprop-2-en-1-yl]-4-[3-(2,3-dihydro-1,4-benzodioxin-6-yl)phenyl]-2,4-dihydro-3H-1,2,4-triazol-3-one hydrochloride] were 0.69 nM, 37 nM, above 100000 nM and 1460 nM.
Turning to `NC/C(=C\F)Cn1ncn(-c2cccc(-c3ccc4nonc4c3)n2)c1=O` [Example 195, 2-[(2E)-2-(aminomethyl)-3-fluoroprop-2-en-1-yl]-4-[6-(2,1,3-benzooxadiazol-5-yl)pyridin-2-yl]-2,4-dihydro-3H-1,2,4-triazol-3-one], the IC50 on recombinant human VAP-1 is 0.66 nM; in test [1] (1 mM putrescine substrate) it was below 30 nM; in test [2] (0.5 mM tyramine substrate), above 100000 nM; in test [3] (1 mM benzylamine substrate), 620 nM.
In the case of `Cc1cc(-c2cccc(-n3cnn(C/C(=C/F)CN)c3=O)c2)cn(C)c1=O` [Example 89, 5-(3-{1-[(2E)-2-(aminomethyl)-3-fluoroprop-2-en-1-yl]-5-oxo-1,5-dihydro-4H-1,2,4-triazol-4-yl}phenyl)-1,3-dimethylpyridin-2(1H)-one hydrochloride], the IC50 on recombinant human VAP-1 (30 min preincubation at 37° C.) was 0.6 nM; in test [1] (setting [4]), 4.7 nM; in test [2] (0.5 mM tyramine), above 100000 nM; in test [3] (1 mM benzylamine), above 10000 nM.
Regarding `NC/C(=C\F)Cn1ncn(-c2ccc(F)c(F)c2)c1=O` [Example 10, 2-[(2E)-2-(aminomethyl)-3-fluoroprop-2-en-1-yl]-4-(3,4-difluorophenyl)-2,4-dihydro-3H-1,2,4-triazol-3-one hydrochloride], the IC50 was 2.4 nM at recombinant human VAP-1 (30 min preincubation at 37° C.), 100 nM in test [1] (setting [4]), above 100000 nM in test [2] (0.5 mM tyramine) and 1610 nM in test [3] (1 mM benzylamine).
As for `NC/C(=C\F)Cn1ncn(-c2ccc(-c3cccc(-c4nnc[nH]4)c3)cc2F)c1=O` [Example 44, 2-[(2E)-2-(aminomethyl)-3-fluoroprop-2-en-1-yl]-4-[3-fluoro-3′-(4H-1,2,4-triazol-3-yl)biphenyl-4-yl]-2,4-dihydro-3H-1,2,4-triazol-3-one], the IC50 is 1.3 nM at recombinant human VAP-1 (30 min preincubation at 37° C.), below 100 nM in test [1] (setting [4]), 68300 nM in test [2] (0.5 mM tyramine) and 65 nM in test [3] (1 mM benzylamine).
